From patent US20130158112A1, “COMPOSITIONS AND METHODS FOR INHIBITING BETA AMYLOID SECRETION” (priority 2011, published 2013)
Read-outs that look alike come from different tables or passages of the source.

Columns and labels:
H4βAPP695 wt cells = test: Cytotoxicity by total cell protein content (BCA) of H4βAPP695 wt cells; conditions: cytotoxicity
Description: Cells were washed with cold phosphate buffered saline (PBS) and lysed on ice by vigorous mixing over 15 min with RIPA buffer containing 50 mM Tris-HCl (pH 8.0), 150 mM sodium chloride, 1% NP-40, 0.5% sodium deoxycholate, and 0.1% SDS, supplemented with 10% protease inhibitor cocktail and 2 mM PMSF. After centrifugation at 14000 g for 30 min to remove nuclei and other debris at 4° C., the protein content of the supernatants was measured using the BCA assay kit (Pierce).
The initial screen was performed in 96-well plates with drugs distributed by the hanging drop method yielding estimated drug levels of 10-25 μM. Total Aβ levels in the 24 h conditioned media were measured by a sandwich ELISA assay, and cytotoxicity was assessed by methylene blue staining of the cells in the wells, as previously described.

Aβ secretion = test: Secreted total Aβ ELISA in conditioned media of H4βAPP695 wt cells; assay type: cell-based, human; conditions: for inhibition at 10 µM / inhibition at 30 µM: Homo sapiens, 24 h, H4βAPP695 wt cells; for inhibition at 30 µM: read-out: Total Aβ (% decrease) 30 μM Mean; for Aβ secretion inhibiting activity (structure activity summary): in words
Description: H4βAPP695 wt cells, a human […] cell line stably transfected with a wtβAPP695 expression vector construct under the control of a CMV promoter (kindly provided by Dr. Chris Eckman from Mayo Clinic, Florida) were cultured as previously described. Twenty-four hours before drug treatment, the media was replaced with serum-free media. Cells were then incubated with drugs (dissolved in DMSO) or vehicle for 24 h for collection of conditioned media and cell lysates. For the PKC inhibitors experiment, three inhibitors were treated 30 min prior to drug challenge. Primary cortical neurons were prepared from embryonic day 18 APP and presenilin 1 (APPswe, PSEN1dE9) transgenic mice on the C57BL/6 genetic background (Jackson Laboratories, strain no. 5864) as previously described. THLE-3 human hepatoma cells (from ATCC) were plated in 24-well plates that were precoated with 10 μg/mL bovine serum albumin, 10 μg/mL fibronectin, and 30 μg/mL bovine type I collagen. The cells were grown in BEGM media (Clonetics) until confluent and treated with drugs at 20 μM for 24 h. This conditioned media was harvested, diluted 1:1 in serum-free medium, and incubated with H4βAPP695 wt cells for 24 h prior to analysis of secreted Aβ, which was compared to the effect of 10 μM drug treatments without prior incubation with the THLE-3 cells. Caco-2 cells (ATCC) were plated in 12-well plates with Transwell inserts (Costar) at 70000 cells per well and grown for 21 days. The media volume of the apical and basal chambers was 0.5 and 1.5 mL, respectively. Transepithelial resistance was measured in each well and found to be >160 Ω/cm^2. Drugs at 40 μM and 20 μg/mL of lucifer yellow were added in serum-free medium to the apical chamber. Four hours later, the basal chamber media was harvested and used to measure lucifer yellow fluorescence to confirm monolayer integrity as well as for treatment of H4βAPP695 wt cells for 24 h prior to analysis of secreted Aβ, which was compared to the effect of direct addition of 10 μM of the corresponding drug.

[1] = read-out: Total Aβ (% decrease) 10 μM Mean
[2] = relative to vehicle treated control cells, read-out: % β Decrease

| melting point | Compound | Cell protein (% decrease) 10 μM Mean (H4βAPP695 wt cells) | Cell protein (% decrease) 30 μM Mean (H4βAPP695 wt cells) | inhibition at 10 µM (Aβ secretion; [1]) | inhibition at 30 µM (Aβ secretion) | Aβ secretion inhibiting activity (structure activity summary) (Aβ secretion) | inhibition at 10 µM (Aβ secretion; [2]) |
| --- | --- | --- | --- | --- | --- | --- | --- |
| 80 to 81 °C | COc1ccc(CSCCNC(=O)c2c(Cl)cccc2Cl)cc1 [Compound 26, 2,6-Dichloro-N-[2-(4-methoxy-benzylsulfanyl)-ethyl]-benzamide] | 6.7% | 12.7% | 1.6% | 1.1% | loss of activity | – |
| – | Oc1c(Cl)cc(Cl)cc1/C=N/CCSCc1ccccc1Cl [Compound 23] | – | – | – | – | – | 5.3% |
| – | O=C(NCCSCc1cccc(OCCOCCO)c1)c1c(Cl)cccc1Cl [Compound 70, 2,6-Dichloro-N-(2-(3-[2-(2-hydroxy-ethoxy)-ethoxy]-benzylsulfanyl)-ethyl)-benzamide] | −7.3% | 6.1% | 17.4% | 24.3% | did not yield good activity | – |
| 174 to 176 °C | O=C(NCC[S+]([O-])Cc1cccc(Cl)c1)c1c(Cl)cccc1Cl (centres unmarked) [Compound 71, 2,6-Dichloro-N-[2-(3-chloro-phenylmethanesulfinyl)-ethyl]-benzamide] | −4.9% | 7.3% | 4% | -16.5% | No tested substitutions in the linker region were well tolerated | – |
| 46 to 47 °C | O=C(NCCSCc1cccc(NC(=O)C2CC2)c1)c1c(Cl)cccc1Cl [Compound 69, 2,6-Dichloro-N-(2-[3-(cyclopropanecarbonyl-amino)-benzylsulfanyl]-ethyl)-benzamide] | 3% | 3.2% | -21.4% | -2% | did not yield good activity | – |
| 139 to 141 °C | O=C(NCCS(=O)(=O)Cc1cccc(O)c1)c1c(Cl)cccc1Cl [Compound 31, 2,6-Dichloro-N-[2-(3-hydroxy-phenylmethanesulfonyl)-ethyl]-benzamide] | 7.7% | 4.4% | -10.1% | 9.6% | No tested substitutions in the linker region were well tolerated | – |
| – | O=C(NCCSCc1ccc(Cl)cc1)c1ccc(Cl)cc1Cl [Compound 2] | – | – | – | – | – | 5.3% |
| – | O=C(NCCSCc1ccc(Cl)c(Cl)c1)c1ccccc1Cl [Compound 5] | – | – | – | – | – | 0.7% |
| – | COc1cccc(CS(=O)(=O)CCNC(=O)c2c(Cl)cccc2Cl)c1 [Compound 30, 2,6-dichloro-N-[2-(3-methoxy-phenylmethanesulfonyl)-ethyl]-benzamide] | 1.2% | 8.9% | 5.3% | 4.9% | No tested substitutions in the linker region were well tolerated | – |
| – | O=C(Cc1c(Cl)cccc1Cl)NCCSCc1cccc(Cl)c1 [Compound 78, N-[2-(3-chloro-benzylsulfanyl)-ethyl]-2-(2,6-dichloro-phenyl)-acetamide] | −1.3% | −.07% | 6.7% | 13.5% | No tested substitutions in the linker region were well tolerated | – |
| – | O=C(NCCS(=O)(=O)Cc1ccc(F)cc1)c1c(F)cccc1Cl [Compound 24] | – | – | – | – | – | 39.2% |
| – | COCCCNC(=O)c1c(Cl)cccc1Cl [Compound 8] | – | – | – | – | – | 6.9% |
| – | O=C(NCCSCc1ccc(F)cc1)c1c(F)cccc1Cl [Compound 22] | – | – | – | – | – | 27.3% |
| – | O=C(NCCSCc1ccc(Cl)cc1)c1ccccc1Cl [Compound 17] | – | – | – | – | – | -12% |
| – | O=C(NCCNC(=O)c1c(Cl)cccc1Cl)c1c(Cl)cccc1Cl [Compound 13] | – | – | – | – | – | 7.6% |
| – | Cc1cccc(C)c1C(=O)NCCSCc1cccc(Cl)c1 [Compound 75, N-[2-(3-chloro-benzylsulfanyl)-ethyl]-2,6-dimethyl-benzamide] | 0.9% | −9.4% | 29.5% | 51.6% | not well tolerated | – |
| – | O=C(NCCSCc1cccc(Cl)c1)c1ccccc1Cl [Compound 3] | – | – | – | – | – | 4.7% |
| – | O=C(NCCCCNC(=O)c1ccccc1Br)c1ccccc1Br [Compound 4] | – | – | – | – | – | 7.9% |
| – | NC(=O)c1c(Cl)cccc1CSCC(=O)c1c(Cl)cccc1Cl [Compound 61, 2-Chloro-6-((2-(2,6-dichlorophenyl)-2-oxoethylthio)methyl)benzamide] | 2.5% | −5.6% | 44.7% | 49.7% | could be tolerated | – |
| – | O=C(NCCSCc1ccc(Cl)c(Cl)c1)c1ccc(Cl)cc1Cl [Compound 6] | – | – | – | – | – | 4.3% |
| – | N=C(NO)c1cccc(CSCCNC(=O)c2c(Cl)cccc2Cl)c1 [Compound 39, 2,6-Dichloro-N-(2-[3-(N-hydroxycarbamimidoyl)-benzylsulfanyl]-ethyl)-benzamide] | 9.2% | 5.9% | -1.5% | 1.6% | did not yield good activity | – |
| – | O=C(NCCCCNC(=O)c1ccccc1F)c1ccccc1F [Compound 25] | – | – | – | – | – | 0.2% |
| – | O=C(NCCSCc1cccc(O)c1O)c1c(Cl)cccc1Cl [Compound 58, 2,6-Dichloro-N-[2-(2,3-dihydroxy-benzylsulfanyl)-ethyl]-benzamide] | −4.8% | 14% | -4.3% | 33.1% | lost activity | – |
| – | O=C(NCCSCc1ccccc1Cl)c1ccccc1Cl [Compound 16] | – | – | – | – | – | 4% |
| – | O=C(NCCSCc1ccccc1)c1ccccc1 [Compound 64, N-(2-Benzylsulfanyl-ethyl)-benzamide] | 0.7% | −4.1% | -5.7% | 5.5% | – | – |
| – | Clc1cccc(CSCCNCc2c(Cl)cccc2Cl)c1 [Compound 57, [2-(3-Chloro-benzylsulfanyl)-ethyl]-(2,6-dichloro-benzyl)-amine] | −3.6% | 6.6% | 45.2% | 45.6% | No tested substitutions in the linker region were well tolerated | – |
| – | COc1cccc(C[S+]([O-])CCNC(=O)c2c(Cl)cccc2Cl)c1 (centres unmarked) [Compound 32, 2,6-dichloro-N-[2-(3-methoxy-phenylmethanesulfinyl)-ethyl]-benzamide] | 1.6% | 9.2% | -13.6% | -15.8% | No tested substitutions in the linker region were well tolerated | – |
